Where “and” joins values, the source holds several entries; their conditions need not be identical. Equal entries are not always repeated. Where two headings read alike, the source gives them in different places.
Assays:
[1] = target: T1, CCKa (Homo sapiens, UniProt P32238); experiment: cell-based
T1 sequence (P32238 1-428): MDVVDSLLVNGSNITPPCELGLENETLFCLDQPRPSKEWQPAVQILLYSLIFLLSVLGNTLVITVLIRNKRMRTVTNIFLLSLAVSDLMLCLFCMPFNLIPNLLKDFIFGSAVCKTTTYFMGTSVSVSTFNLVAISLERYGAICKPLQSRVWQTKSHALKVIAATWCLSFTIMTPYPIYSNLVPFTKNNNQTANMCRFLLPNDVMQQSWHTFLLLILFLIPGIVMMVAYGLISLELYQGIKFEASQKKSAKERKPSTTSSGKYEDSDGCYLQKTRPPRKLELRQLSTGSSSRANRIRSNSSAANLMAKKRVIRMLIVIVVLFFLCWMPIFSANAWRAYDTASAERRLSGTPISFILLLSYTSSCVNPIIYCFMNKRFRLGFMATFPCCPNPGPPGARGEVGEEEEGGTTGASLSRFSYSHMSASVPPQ

[2] = target: CK1 alpha (Homo sapiens, UniProt P48729); experiment: biochemical
[3] = target: Beta2 (Homo sapiens, UniProt P07550); experiment: cell-based
[4] = target: T1, CCKa; experiment: cell-based; remark: listed apart in the source
[5] = target: op-kappa (Homo sapiens, UniProt P41145); experiment: cell-based
[6] = target: Alpha1a (Homo sapiens, UniProt P35348); experiment: cell-based
[7] = test system: Influenza virus B/Lee/40; experiment: microbe, parasite or virus in culture; format: cell-based; conditions: MDCK, read-out: EC50 (mean ± SD)
[8] = in vitro; conditions: rhesus monkey
[9] = target: LCK (Homo sapiens, UniProt P06239); experiment: biochemical
[10] = test system: Influenza virus A/Mal/302/54 (H1N1); experiment: microbe, parasite or virus in culture; format: cell-based; conditions: H1N1, MDCK, read-out: EC50 (mean ± SD)
[11] = target: JAK2 (Homo sapiens, UniProt O60674); experiment: biochemical
[12] = test system: HRV 1B; experiment: microbe, parasite or virus in culture; format: cell-based; conditions: Human rhinovirus sp., H1-HeLa, read-out: EC50 for Virus
[13] = target: CDK2 (Homo sapiens, UniProt P24941); experiment: biochemical
[14] = test system: HPIV-3 C243; experiment: microbe, parasite or virus in culture; format: cell-based, human parainfluenza virus type 3; conditions: Human respirovirus 3, LLC-MK2, read-out: EC50 for Virus
[15] = target: Eta (Homo sapiens, UniProt P25101); experiment: cell-based
[16] = test system: H1N1 and H3N2 influenza A virus strains; experiment: in vitro; conditions: dog
[17] = test system: influenza A virus WSN/33 (H1N1); parameters: species or system BALB/c mice; conditions: mouse, in vivo
[18] = in vitro; conditions: dog, CC50 (mean ± SD)
[19] = target: p38 alpha (Homo sapiens, UniProt Q16539); experiment: biochemical
[20] = target: SRC (Homo sapiens, UniProt P12931); experiment: biochemical
[21] = in vitro
[22] = target: GSK3 beta (Homo sapiens, UniProt P49841); experiment: biochemical
[23] = test system: HCV replicon 1b; experiment: microbe, parasite or virus in culture; format: cell-based; conditions: Hepatitis C virus, read-out: EC50 for Virus
[24] = in vivo; conditions: female, BALB/c, mouse, po
[25] = target: M1 (Homo sapiens, UniProt P11229); experiment: cell-based
[26] = in vivo; conditions: both, SD, rat; for AUC(0-t): AUC0-last
[27] = test system: AD2; format: cell-based, human
[28] = test system: EV71 Shenzhen/120F1/09; experiment: microbe, parasite or virus in culture; format: cell-based, human enterovirus 71; conditions: Enterovirus A, EV71, RD, read-out: EC50 for Virus
[29] = test system: influenza A virus WSN/33 (H1N1); parameters: species or system BALB/c mice; conditions: mouse, in vivo; remark: listed apart in the source
[30] = test system: Influenza virus A/WSN/33 (H1N1); experiment: microbe, parasite or virus in culture; format: cell-based; conditions: MDCK, read-out: EC50 (mean ± SD)
[31] = target: op-mu (Homo sapiens, UniProt P35372); experiment: cell-based
[32] = 10,000 nM, read-out: Inhibition at Maximum Concentration (%)

op-mu, sequence (P35372 whole entry): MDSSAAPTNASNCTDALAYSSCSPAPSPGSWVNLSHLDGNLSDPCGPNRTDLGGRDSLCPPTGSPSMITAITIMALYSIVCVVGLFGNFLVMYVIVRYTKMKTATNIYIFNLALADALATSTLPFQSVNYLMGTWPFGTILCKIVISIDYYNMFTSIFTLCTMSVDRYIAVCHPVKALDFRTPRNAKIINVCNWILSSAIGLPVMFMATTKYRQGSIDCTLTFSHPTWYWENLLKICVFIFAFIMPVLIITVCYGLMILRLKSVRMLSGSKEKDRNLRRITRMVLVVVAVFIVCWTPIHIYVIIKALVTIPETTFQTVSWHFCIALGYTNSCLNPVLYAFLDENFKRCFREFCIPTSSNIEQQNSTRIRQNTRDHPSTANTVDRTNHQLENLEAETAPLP
Alpha1a, sequence (P35348 whole entry): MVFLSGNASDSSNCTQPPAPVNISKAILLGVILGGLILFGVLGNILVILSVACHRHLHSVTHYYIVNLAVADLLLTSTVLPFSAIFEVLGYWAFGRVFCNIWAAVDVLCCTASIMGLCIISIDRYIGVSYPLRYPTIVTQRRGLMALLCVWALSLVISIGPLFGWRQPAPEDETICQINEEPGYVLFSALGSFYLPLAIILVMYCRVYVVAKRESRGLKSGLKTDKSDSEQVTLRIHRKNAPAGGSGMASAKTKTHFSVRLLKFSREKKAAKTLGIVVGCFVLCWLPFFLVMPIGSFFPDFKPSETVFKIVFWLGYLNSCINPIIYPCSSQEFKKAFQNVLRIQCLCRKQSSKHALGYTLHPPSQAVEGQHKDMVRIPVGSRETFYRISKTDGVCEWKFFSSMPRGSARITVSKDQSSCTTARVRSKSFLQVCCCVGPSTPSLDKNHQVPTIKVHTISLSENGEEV
Eta, sequence (P25101 21-427): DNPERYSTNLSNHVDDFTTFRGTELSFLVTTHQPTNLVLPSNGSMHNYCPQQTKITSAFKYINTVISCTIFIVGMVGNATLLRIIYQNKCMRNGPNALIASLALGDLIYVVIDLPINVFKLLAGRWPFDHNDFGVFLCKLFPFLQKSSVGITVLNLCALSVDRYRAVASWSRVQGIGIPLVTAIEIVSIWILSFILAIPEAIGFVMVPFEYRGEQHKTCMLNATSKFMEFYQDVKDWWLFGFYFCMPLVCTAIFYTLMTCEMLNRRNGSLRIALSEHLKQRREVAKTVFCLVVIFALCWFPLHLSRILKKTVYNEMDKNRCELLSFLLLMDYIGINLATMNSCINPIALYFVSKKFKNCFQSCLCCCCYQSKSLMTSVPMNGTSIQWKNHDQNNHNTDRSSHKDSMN
op-kappa, sequence (P41145 whole entry): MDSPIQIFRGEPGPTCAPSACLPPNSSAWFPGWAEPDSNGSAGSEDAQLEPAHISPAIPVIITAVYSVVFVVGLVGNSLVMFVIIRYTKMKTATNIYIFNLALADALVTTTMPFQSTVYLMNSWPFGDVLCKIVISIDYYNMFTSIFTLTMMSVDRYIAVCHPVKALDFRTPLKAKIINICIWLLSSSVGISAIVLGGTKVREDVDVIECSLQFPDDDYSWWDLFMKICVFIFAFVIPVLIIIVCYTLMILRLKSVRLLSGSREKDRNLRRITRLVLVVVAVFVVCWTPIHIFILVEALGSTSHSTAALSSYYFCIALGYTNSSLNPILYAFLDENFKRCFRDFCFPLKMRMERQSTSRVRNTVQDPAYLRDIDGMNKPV
M1, sequence (P11229 whole entry): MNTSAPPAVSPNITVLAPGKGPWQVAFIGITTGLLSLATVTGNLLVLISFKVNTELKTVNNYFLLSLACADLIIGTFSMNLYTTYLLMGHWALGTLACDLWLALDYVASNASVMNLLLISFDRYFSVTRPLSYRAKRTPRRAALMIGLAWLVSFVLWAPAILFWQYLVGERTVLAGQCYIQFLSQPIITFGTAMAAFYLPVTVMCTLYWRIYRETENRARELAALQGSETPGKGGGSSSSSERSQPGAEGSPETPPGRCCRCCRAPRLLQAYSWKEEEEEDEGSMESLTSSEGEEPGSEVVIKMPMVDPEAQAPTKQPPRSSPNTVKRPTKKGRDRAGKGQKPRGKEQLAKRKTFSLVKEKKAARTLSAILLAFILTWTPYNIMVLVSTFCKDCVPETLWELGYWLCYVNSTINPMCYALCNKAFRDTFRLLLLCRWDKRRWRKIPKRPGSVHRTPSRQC
Beta2, sequence (P07550 whole entry): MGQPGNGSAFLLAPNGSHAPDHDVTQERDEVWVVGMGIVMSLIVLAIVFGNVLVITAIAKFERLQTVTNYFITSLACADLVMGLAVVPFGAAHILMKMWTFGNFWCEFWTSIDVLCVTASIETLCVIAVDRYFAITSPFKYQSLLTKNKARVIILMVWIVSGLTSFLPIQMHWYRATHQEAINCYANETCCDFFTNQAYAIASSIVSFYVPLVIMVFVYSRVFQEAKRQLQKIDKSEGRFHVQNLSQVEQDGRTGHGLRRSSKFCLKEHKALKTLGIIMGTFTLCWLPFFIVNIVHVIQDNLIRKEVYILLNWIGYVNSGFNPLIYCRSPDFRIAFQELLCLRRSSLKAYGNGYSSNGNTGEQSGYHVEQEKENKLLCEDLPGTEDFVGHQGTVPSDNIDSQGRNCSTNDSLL
JAK2, sequence (O60674 whole entry): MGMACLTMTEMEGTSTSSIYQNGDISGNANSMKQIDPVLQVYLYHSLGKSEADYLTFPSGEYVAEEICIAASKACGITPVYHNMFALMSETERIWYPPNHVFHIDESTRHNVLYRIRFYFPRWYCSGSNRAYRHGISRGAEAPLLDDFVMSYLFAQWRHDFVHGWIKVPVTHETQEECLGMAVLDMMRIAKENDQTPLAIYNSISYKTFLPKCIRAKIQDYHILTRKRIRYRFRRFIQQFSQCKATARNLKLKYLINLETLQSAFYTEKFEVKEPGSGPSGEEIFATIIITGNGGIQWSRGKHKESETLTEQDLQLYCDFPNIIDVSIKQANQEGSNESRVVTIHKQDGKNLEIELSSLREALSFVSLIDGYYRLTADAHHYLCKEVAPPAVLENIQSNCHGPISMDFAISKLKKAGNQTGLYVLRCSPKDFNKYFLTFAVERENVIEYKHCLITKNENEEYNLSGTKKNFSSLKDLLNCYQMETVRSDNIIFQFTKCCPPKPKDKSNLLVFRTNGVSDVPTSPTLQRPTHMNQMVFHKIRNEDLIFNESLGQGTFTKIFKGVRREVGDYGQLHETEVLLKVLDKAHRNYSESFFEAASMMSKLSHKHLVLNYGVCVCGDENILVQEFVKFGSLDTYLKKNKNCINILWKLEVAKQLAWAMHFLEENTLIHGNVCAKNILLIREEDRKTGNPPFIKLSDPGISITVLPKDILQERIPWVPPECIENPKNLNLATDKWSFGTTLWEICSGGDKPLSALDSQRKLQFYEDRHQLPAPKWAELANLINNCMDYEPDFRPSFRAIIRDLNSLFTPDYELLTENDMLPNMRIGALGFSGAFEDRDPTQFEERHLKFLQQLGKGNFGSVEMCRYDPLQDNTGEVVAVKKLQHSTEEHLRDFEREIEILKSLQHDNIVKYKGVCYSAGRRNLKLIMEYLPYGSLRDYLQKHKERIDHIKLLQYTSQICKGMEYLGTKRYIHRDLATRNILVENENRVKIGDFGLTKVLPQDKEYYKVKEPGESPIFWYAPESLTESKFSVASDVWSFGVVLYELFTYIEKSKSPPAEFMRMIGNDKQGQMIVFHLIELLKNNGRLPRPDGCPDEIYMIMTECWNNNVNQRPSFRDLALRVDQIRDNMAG
CK1 alpha, sequence (P48729 whole entry): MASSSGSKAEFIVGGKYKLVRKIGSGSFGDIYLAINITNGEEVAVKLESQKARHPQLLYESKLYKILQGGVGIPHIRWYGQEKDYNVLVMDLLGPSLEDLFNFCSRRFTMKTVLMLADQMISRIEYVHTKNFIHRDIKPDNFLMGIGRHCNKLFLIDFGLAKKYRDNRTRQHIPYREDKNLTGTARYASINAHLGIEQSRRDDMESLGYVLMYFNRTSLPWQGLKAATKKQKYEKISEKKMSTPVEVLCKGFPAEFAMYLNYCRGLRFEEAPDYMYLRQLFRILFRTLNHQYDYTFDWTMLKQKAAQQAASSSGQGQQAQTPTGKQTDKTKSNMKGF
LCK, sequence (P06239 whole entry): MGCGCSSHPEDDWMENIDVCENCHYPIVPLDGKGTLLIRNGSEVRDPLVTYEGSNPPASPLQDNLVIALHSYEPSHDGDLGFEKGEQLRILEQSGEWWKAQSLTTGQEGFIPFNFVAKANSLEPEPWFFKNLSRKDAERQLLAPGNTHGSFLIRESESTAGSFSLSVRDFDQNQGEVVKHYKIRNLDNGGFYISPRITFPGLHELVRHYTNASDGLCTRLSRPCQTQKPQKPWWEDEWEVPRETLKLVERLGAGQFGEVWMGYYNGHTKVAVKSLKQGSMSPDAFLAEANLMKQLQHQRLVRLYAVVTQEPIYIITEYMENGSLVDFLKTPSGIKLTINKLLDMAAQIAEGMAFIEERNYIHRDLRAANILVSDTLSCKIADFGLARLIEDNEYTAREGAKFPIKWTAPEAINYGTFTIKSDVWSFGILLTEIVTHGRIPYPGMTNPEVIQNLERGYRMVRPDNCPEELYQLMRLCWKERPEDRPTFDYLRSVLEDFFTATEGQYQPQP
p38 alpha, sequence (Q16539 whole entry): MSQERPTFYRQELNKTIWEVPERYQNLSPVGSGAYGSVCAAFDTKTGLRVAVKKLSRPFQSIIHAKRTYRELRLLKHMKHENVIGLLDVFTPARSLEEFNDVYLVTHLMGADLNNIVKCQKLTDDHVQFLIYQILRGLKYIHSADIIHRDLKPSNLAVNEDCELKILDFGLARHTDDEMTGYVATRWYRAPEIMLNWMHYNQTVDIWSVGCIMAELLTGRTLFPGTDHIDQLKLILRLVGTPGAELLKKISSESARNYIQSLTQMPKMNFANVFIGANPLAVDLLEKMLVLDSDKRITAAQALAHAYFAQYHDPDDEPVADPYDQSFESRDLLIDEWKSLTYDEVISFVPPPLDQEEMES

## O=C(O)[C@H]1C2CCC(CC2)[C@@H]1Nc1nc(-c2n[nH]c3ncc(F)cc23)nc(C2CC2)c1F [ZSP1273]
[1]
  EC50: > 12 µM
[1]; 12,000 nM
  Activity at Maximum Concentration (%): −4.4%
[2]
  IC50: > 10 µM
[3]
  EC50: > 12 µM
[3]; 12,000 nM
  Activity at Maximum Concentration (%): 1.43%
[4]
  IC50: > 10 µM
[4]; [32]
  inhibition at 10 µM: -17.6%
[5]
  IC50: > 10 µM
[5]; [32]
  inhibition at 10 µM: -27.8%
[6]
  EC50: > 12 µM
[6]; 12,000 nM
  Activity at Maximum Concentration (%): −2.93%
[7]
  EC50: > 0.001 µM
[8]
  CC50: > 10 µM
[9]
  IC50: > 10 µM
[10]
  EC50: 0.028 ± 0.011 nM
[11]
  IC50: > 10 µM
[12]
  EC50: 7.88 µM
[13]
  IC50: > 10 µM
[14]
  EC50: > 10 µM
[15]
  IC50: > 10 µM
[15]; [32]
  inhibition at 10 µM: 9.07%
[16]
  selectivity ratio: > 25000
[17]
  animals died (of n = 8): one
  day on which body weight of surviving mice began to recover: 8 days
  day on which weight of surviving mice increased gradually: 6th
  mice died (of n = 8): no mice died
  survival rate: 100%
[18]
  CC50: 1.63 ± 0.87 µM
[19]
  IC50: > 10 µM
[20]
  IC50: > 10 µM
[21]
  CC50: > 10 µM
[22]
  IC50: > 10 µM
[23]
  EC50: > 10 µM
[24]; 3 mg/kg
  AUC(0-t): 1040 ng·h/mL
  Cmax: 439 ng/mL
[24]; 10 mg/kg
  AUC(0-t): 6190 ng·h/mL
  Cmax: 3010 ng/mL
[24]; 30 mg/kg
  AUC(0-t): 56000 ng·h/mL
  Cmax: 23700 ng/mL
[25]
  EC50: > 12 µM
[25]; 12,000 nM
  Activity at Maximum Concentration (%): −3.22%
[26]; iv, 3 mg/kg
  Vd: 0.508 ± 0.241 L/kg
  clearance: 12.9 ± 2.23 mL/min/kg
  half-life: 2.11 ± 1.46 h
  AUC(0-t): 3950 ± 773 ng·h/mL
[26]; po, 3 mg/kg
  bioavailability: 22.8%
  AUC(0-t): 899 ± 213 ng·h/mL
  Cmax: 661 ± 304 ng/mL
[26]; po, 15 mg/kg
  AUC(0-t): 12100 ng·h/mL
  Cmax: 5680 ± 2470 ng/mL
[26]; po, 75 mg/kg
  AUC(0-t): 77700 ng·h/mL
  Cmax: 17200 ng/mL
[27]
  EC50: > 12 µM
[27]; 12,000 nM
  Activity at Maximum Concentration (%): 3.38%
[28]
  EC50: > 10 µM
[29]
  day on which mice began to regain body weight: 4 days and 5 days
[29]; 3 mg/kg
  decrease of viral load in lung tissues vs vehicle: 2.37 log10
[29]; 10 mg/kg
  decrease of viral load in lung tissues vs vehicle: 3.1 log10 and 4.18 log10
[29]; 30 mg/kg
  decrease of viral load in lung tissues vs vehicle: 4.97 log10
  viral titer in lung tissues: < 2.0 log10
[30]
  EC50: 0.063 ± 0.028 nM
[31]
  IC50: > 10 µM
[31]; [32]
  inhibition at 10 µM: -24.5%
